Experimental data: paper PMC5591244, “Novel selective, potent naphthyl TRPM8 antagonists identified through a combined ligand- and structure-based virtual screening approach” (Scientific Reports, 2017)
“Also recorded” adds a separate entry of the source.

Key:
[1] = target: T1, TRPM8 (Homo sapiens, UniProt Q7Z2W7); experiment: Manual patch clamp (whole-cell voltage clamp); type: cell-based; details: Cooling agent 10 50 μM, +40 mV, compound 1 300 nM
T1 construct: expressed in transfected cells
Method: Sixteen hours before an experiment, cells were seeded onto poly-D-lysine-coated glass slides (150,000 cells each) and placed in 6-well plates in antibiotic-free medium. Immediately before experiments, the coated glass slides with seeded cells were washed five times with patch-clamp extracellular solution (145 mM NaCl, 10 mM EGTA, 10 mM HEPES, 10 mM Glucose, pH 7.4 with NaOH) and then placed into the recording chamber.
The electrophysiology study involved a whole-cell voltage clamp and intracellular solution consisting of 128 mM CsCl, 10 mM EGTA, 0.7 mM CaCl2, 3 mM MgCl2, 10 mM HEPES, and 5 mM Na2ATP at pH 7.2 with CsOH. For the pulse protocols, cells were held at +40 mV, and outward currents were acquired in uninterrupted recording mode. Data were recorded in standard whole-cell voltage experiments performed at room temperature. For data acquisition and further analysis, an EPC10 digitally controlled amplifier was utilized in combination with PATCHMASTER software (HEKA Electronics, Lambrect, Germany). The EPC10 provides automatic subtraction of capacitive currents by means of the prepulse. The data were filtered at 2.9 KHz (−3 dB, 4-pole Bessel lowpass) and digitized at 100 µs per point. […] Outward currents elicited by the addition of 50 μM cooling agent 10 or of cooling agent 10 (50 μM) plus compound 1 (300 nM) were recorded.

[2] = tested on: rat bladder (rhythmic bladder contraction); experiment: Isovolumetric bladder rat model; type: in vivo
Method: To assess the activity of compound 1 in preclinical models of painful urologic syndromes as OBS we used an isovolumetric rat bladder animal model. A preliminary PK/ADMET study was conducted to assess the behaviour of compound 1 in vivo (Table S3).
Female Wistar rats (190–250 g) obtained from Charles River Laboratories were housed according to animal welfare guidelines. Rats were housed in a specific-pathogen-free environment under strictly controlled light cycle conditions, and food and water were provided ad libitum. All experimental protocols were carried out by Urosphere in accordance with the European Community Council Directive 86/609/EEC. They were performed in accordance with French legislation concerning the protection of laboratory animals and they were approved by French Ministry for Agriculture and Fisheries which provided a currently valid license for experiments on vertebrate animals to Dr. Philippe Lluel.
For intravenous administration, compound 1 was diluted in vehicle (10% of 2:1 solutol:NMP, 16% buffer, and 74% H2O) according to body weight to obtain doses of 10 mg/kg. For intravesical administration, compound 1 was diluted at a concentration of 7.56 mg/ml in a solution of 7% 2:1 solutol:NMP, […]. Eight rats were used for the control group and eight were used for the treated group.
Rats were anesthetized with urethane (1 g/kg, i.p.), given as a divided dose of 80% initially and 20% 15 min later. After abdominal incision, the ureters were ligated and sectioned. A catheter was placed into the bladder through the urethra. Then, the urethra was ligated at the level of the urinary meatus. For cystometric experiments with intravenous compound 1 administration a bladder catheter was connected via a T-tube to a strain gauge, which was used to measure the intravesical pressure. Isovolumetric bladder contractions were induced by stepwise injections of physiological saline at room temperature (100 μl every 5 min) until stable RBC occurred. After stabilization and a control period of at least 30 min, characterized by stable and reproducible bladder contractions (basal values), the test substance or vehicle was administered by intravenous infusion (1 mL within 5 min). The effects of compound 1 on micturition frequency (MF) (peaks/30 min), time of inhibition, and threshold volume (ml) (volume inducing RBC) were analyzed. The drug effects were evaluated from the end of the administration up to 1 hour after administration. For intravesical administration, compounds were administered intravesically 3 × 100 μl every 5 min. Then, the bladder was filled with 100 μl of saline every 5 min until the occurrence of rhythmic bladder contraction (RBC) with a maximal volume of 3 mL. […]

T1 sequence (Q7Z2W7 whole entry): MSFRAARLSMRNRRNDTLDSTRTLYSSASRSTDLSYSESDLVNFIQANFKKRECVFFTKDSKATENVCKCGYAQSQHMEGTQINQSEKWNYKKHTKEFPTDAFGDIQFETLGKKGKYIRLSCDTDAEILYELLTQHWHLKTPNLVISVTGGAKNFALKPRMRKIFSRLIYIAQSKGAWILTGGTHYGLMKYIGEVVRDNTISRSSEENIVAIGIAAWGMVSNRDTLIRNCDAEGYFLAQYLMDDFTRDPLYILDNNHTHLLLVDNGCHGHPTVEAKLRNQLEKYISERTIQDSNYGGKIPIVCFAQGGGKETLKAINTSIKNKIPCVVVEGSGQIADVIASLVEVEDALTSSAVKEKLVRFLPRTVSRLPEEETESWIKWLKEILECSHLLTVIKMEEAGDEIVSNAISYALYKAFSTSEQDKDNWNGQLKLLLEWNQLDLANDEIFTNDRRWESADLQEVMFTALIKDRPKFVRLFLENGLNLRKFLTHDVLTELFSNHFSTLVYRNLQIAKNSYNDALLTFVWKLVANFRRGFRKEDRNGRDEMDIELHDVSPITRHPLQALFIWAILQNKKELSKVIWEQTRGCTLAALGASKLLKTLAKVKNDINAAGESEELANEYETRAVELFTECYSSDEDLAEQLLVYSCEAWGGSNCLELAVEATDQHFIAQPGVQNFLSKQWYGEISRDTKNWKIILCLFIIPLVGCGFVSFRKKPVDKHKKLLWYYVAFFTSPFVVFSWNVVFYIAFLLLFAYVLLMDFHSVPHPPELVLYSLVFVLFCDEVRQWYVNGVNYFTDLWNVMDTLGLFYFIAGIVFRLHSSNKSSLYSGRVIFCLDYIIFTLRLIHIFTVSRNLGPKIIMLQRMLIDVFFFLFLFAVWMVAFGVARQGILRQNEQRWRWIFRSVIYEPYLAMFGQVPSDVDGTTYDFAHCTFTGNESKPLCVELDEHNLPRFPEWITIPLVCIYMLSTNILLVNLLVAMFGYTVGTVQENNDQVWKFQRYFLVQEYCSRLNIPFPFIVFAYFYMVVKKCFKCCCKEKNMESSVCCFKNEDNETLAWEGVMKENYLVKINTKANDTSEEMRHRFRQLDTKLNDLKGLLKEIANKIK

Compound: Clc1c(OCCNCc2ccco2)ccc2ccccc12 [Compound 1]
- Effect on outward current [1]: completely abrogated electrical impulse transmission; also recorded: almost completely blocked
- Threshold volume versus vehicle, intravenous ([2]; intravenous 10 mg/kg): No significant difference
- Micturition frequency (MF) 0–30 min post-administration ([2]; intravenous 10 mg/kg, 0–30 min, 10 mg/kg): significantly decreased; also recorded: significantly reduced
- Micturition frequency (MF) 30–60 min post-administration ([2]; intravenous 10 mg/kg, 30–60 min): no effect
- Occurrence of RBC, intravesical ([2]; intravesical 2.268 mg): abolished the occurrence of RBC
